# Measurements: a melting point compilation (Tetko et al.; mined from patent text by program, amines drawn as free bases though some values may be those of a salt)
row,melting point,SMILES
1,74 to 75 °C,CCOC(=O)COc1cccc2c1CCC(Br)C2=O (stereo not given)
2,178 to 180 °C,Cc1ccc(C(=O)O)c(NC(=O)C(F)(F)F)c1
3,137 to 140 °C,CCCC(Sc1cc(C(C)(C)C)c(O)c(C(C)(C)C)c1)C(=O)Nc1c(C)cccc1C (stereo not given)
4,212 to 213 °C,COc1ccc(-c2cc(N3CCOCC3)cc(=O)o2)cc1
5,121 to 124 °C,COc1cc(C=Cc2ccc(Cl)cc2)ccc1O
6,62 °C,COC(=O)C=CC(=CN(C)C)C(=O)OC
7,204 °C,O=C(O)c1c(-c2ccccc2)nc2c(C(F)(F)F)cccc2c1O
8,217 to 219 °C,O=C(Nc1cnc(-c2ccccc2)[nH]c1=O)OCc1ccccc1
9,170 to 171 °C,Nc1cc(C(=O)c2cccc(C(=O)c3ccc(F)c(N)c3)c2)ccc1F
10,155 to 157 °C,COc1ccc2c(c1)C(Cc1ccnc(F)c1)(Cc1ccnc(F)c1)c1ccccc1C2=O
11,208 °C,CN1CC[C@@H](c2c(O)cc(O)c3c(=O)cc(-c4ccc(N)cc4Br)oc23)[C@@H]1CO
12,115 to 117 °C,CCc1nc2c(cnn2CC)c(NC2CCOCC2)c1CNC(=O)c1cc(C)cc(C(=O)NCc2ccc(OC)c(-c3cccc(CC4CCN(C)CC4)c3)c2)c1
13,83 to 84 °C,C#CCOc1nsc(SC(F)F)c1C#N
14,268 °C,COc1ccc2[nH]cc(C3=C(c4cc(OC)c(OC)c(OC)c4)C(=O)NC3=O)c2c1
15,122 °C,Cc1cccc(C2=CCN(c3ccc(Cl)nn3)CC2)c1
16,109 to 112 °C,CCCCc1ncc(CNC(C)(Cc2cccs2)C(=O)O)n1Cc1ccccc1Cl (stereo not given)
17,210 to 212 °C,CCOc1cc(N)c(Cl)cc1C(=O)NC1CCN(CC2CCN(C(=S)N(C)C)CC2)CC1
18,143 °C,CCCC(CCC)N1CCc2c(C(=O)O)cc(F)cc2C1=O
19,89 to 90 °C,CCN(CC)CCOc1ccc(C(O)(CC)c2cc(C)ccc2C)cc1 (stereo not given)
20,154 °C,Nc1ncc2ncn(CCC(CO)CO)c2n1

row,melting point,SMILES
1,189 to 190 °C,N#Cc1cccc(OCCc2c[nH]cn2)c1
2,131 to 133 °C,O=S(=O)(NCCCCOc1ccc(-n2ccnc2)cc1)c1cccc2cccnc12
3,135 to 136 °C,N#CCN1CCC(N2CCN(CCCN3CCCCC3)C2=C(C#N)C#N)CC1
4,126 to 127 °C,CCCc1c(OCCCOc2ccc(N)cc2)ccc2c1OC(CCC(=O)OCC)(CCC(=O)OCC)CC2=O
5,172 to 174 °C,COc1ccc(C(=O)Nc2ccccc2)cc1NCc1cccc(C#N)c1
6,91 to 92 °C,CCOC(=O)c1cc(N=c2sc(=S)n3n2CCCC3)c(F)cc1F
7,69 to 70 °C,Cc1cc(C=O)c(Cl)nc1C
8,23 to 24 °C,CC(=O)OCCCCCC(=O)CC(=O)c1ccccc1
9,54 to 55 °C,CC(C)COC(=O)c1ccc(N)cc1N
10,147 to 148 °C,Fc1cccc(CCc2nnc(-c3ccnc4[nH]ccc34)o2)c1
11,279 to 280 °C,Cc1c(C(=O)O)oc2cc(O)c(Cl)cc12
12,156 °C,Cn1cc(-c2cnc3c(c2)N(Cc2cc(Cl)ccc2C(F)(F)F)CCN3)cn1
13,222 to 224 °C,Cc1cc(NCCO)c2[nH]nc(-c3ccc(Cl)cc3)c2n1
14,135 to 137 °C,C#CCCCCOc1cc(/C=C/C(=O)Nc2ccccc2C(=O)O)ccc1OC
15,105 to 107 °C,CC(C)(C)OC(=O)NCc1ccc(C2(C)OCCO2)cc1
16,163 °C,Cc1ccc(S(=O)(=O)OCCn2c(=NC(=O)C(F)(F)F)sc3cc(C(F)(F)F)ccc32)cc1
17,218 to 220 °C,OCC1CC(O)C(n2c(Br)nc3cc(Cl)c(Cl)cc32)C1 (stereo not given)
18,115 to 117 °C,O=[N+]([O-])c1cccnc1Oc1nn(Cc2ccccc2F)c2ncccc12
19,145 to 147 °C,C=C(C)COc1ccc2c(=O)c(C)c(-c3ccccc3)oc2c1C(=O)C=Cc1ccccc1

row,SMILES,melting point
1,CCC(=C[N+](=O)[O-])NCc1ccc(Cl)nc1,95 to 98 °C
